Entries after “also recorded” stand apart in the source; their conditions may differ. Like-named read-outs stand apart in the source and are kept apart here.
What was measured:
[1] = test system: Hedgehog signaling (TM3-Gli-Luc); test: TM3-Gli-Luc luciferase reporter assay stimulated with 20 nM SAG; format: cell-based; settings: for EC50: read-out: TM3-Gli-Luc EC50
How it was run: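 TM3-Gli-Luc cells on 0.1% gelatin in DMEM/F12 with 2.5% FBS, treated 48 h with compound plus 20 nM SAG. Steady-Glo luminescence normalized to CellTiter-Glo viability, DMSO-only (no SAG) background subtracted, percent of SAG control. EC50 averaged from ≥2 independent days ±SEM.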

TM3-Gli-Luc cells = test: TM3-Gli-Luc cell viability (Cell Titer Glo, LD50); format: cell-based
Experimental: On the day of cell plating, 96-well plates were coated with 50 μL/well of sterile 0.1% gelatin for 5 minutes then aspirated and replaced with 50 μL/well of TM3 Culture Medium. TM3-Gli-Luc cells were seeded at a density of 5,000 cells/well in TM3 Culture Medium and incubated for 24 hours. A master mix of 20 nM SAG in TM3Luc Medium was prepared, and small molecule solutions were prepared by adding the desired amount of compound from 10 mM DMSO stock to TM3Luc Medium containing 20 nM SAG. Negative control was prepared by adding an equi-volume amount of DMSO as compared to small molecule treated conditions to TM3Luc Medium not containing SAG. Cell plating medium was aspirated and replaced with 100 μL/well of prepared small molecule-containing media, and plates were incubated for 48 hours before proceeding to luciferase activity and cell viability reading.
TM3Luc Medium from compound treated plates was aspirated and replaced with 82 μL/well of Glo Lysis Buffer (Promega, Madison, Wis., USA), and plates were shaken at 300 rpm and room temperature for 12 minutes. Lysate was split between two white 96-well plates, 45 μL/well and 25 μL/well for luciferase reading and cell viability respectively. For luciferase activity monitoring, 45 μL/well of Steady Glo (Promega, Madison, Wis., USA) was added to 45 μL/well of cell lysate, incubated at room temperature for 5 minutes, then luminescence was measured on a Turner Biosystems Modulus Microplate Reader (Sunnyvale, Calif., USA) with an integration time of 0.5 seconds. For cell viability measurement, 25 μL/well of Cell Titer Glo (Promega, Madison, Wis., USA) (prepared by 1:10 dilution with Glo Lysis Buffer) was added to 25 μL/well of cell lysate, incubated at room temperature for 5 minutes, then luminescence was measured as above.
All raw data was divided by the average of positive control cell titer data to arrive at percent cells remaining compared to positive control. […] At least two independent assays tested on separate days were averaged to provide LD50±standard error of the mean.

Gli1 transcription = test: Sufu−/− mouse embryonic fibroblasts qRT-PCR; format: cell-based
Excerpt: (§1) In light of EGM1's ability to halt Hh transcriptional activity at a node downstream of the negative regulator Sufu, and thus also downstream of Smo, we sought to confirm mode of action retention with our most promising analogs. Therefore, we employed Sufu−/− mouse embryonic fibroblasts (MEF) that display constitutively active transcription of Hh target genes Gli1 and Ptch1 and monitored the ability of our optimized analogs to repress signaling via quantitative reverse transcription-PCR (qRT-PCR). […] We then evaluated improved analogs from multiple structural classes including those from Table 1 with cyclohexylthiophene cores as well as from Table 13 with structurally distinct core modifications.
(§2) Sufu^−/− cells were seeded into 12-well plates at a density of 100,000 cells/well in D10 FBS and incubated for 24 hours. Small molecule solutions were prepared by adding the desired amount of compound from 10 mM DMSO stock to D0.5 FBS. Negative control was prepared by adding an equi-volume amount of DMSO to D0.5 FBS as compared to small molecule treated conditions. Cell plating medium was aspirated and replaced with 1 mL of prepared small molecule-containing media, and plates were incubated for 24 hours before proceeding to RNA isolation.
(§3) Cells were washed 1× with 1× phosphate-buffered saline (PBS) then RNA was isolated using the Qiagen RNeasy Mini Kit (Qiagen, Germantown, Md., USA) according to the manufacturer's protocol, eluting RNA from the spin column with 30 μL of RNase-free water. RNA was placed on ice and immediately subjected to reverse transcription. Remaining RNA was stored at −80° C.
(§4) Reverse transcription polymerase chain reaction (RT-PCR) was performed with the Applied Biosystems High Capacity cDNA Reverse Transcription Kit (ThermoFisher Scientific, Waltham, Mass., USA) using an Eppendorf MasterCycler. Each 20 μL reaction contained 0.5 μg of total RNA, 2 μL of 10×RT Buffer, 0.8 μL of 25×dNTP Mix (100 mM), 2 μL of 10×RT Random Primers, 1 μL of MultiScribe® Reverse Transcriptase (50 U/μL), 1 μL of Recombinant RNasin® Ribonuclease Inhibitor (40 U/μL) (Promega, Madison, Wis., USA), and nuclease-free water. Reverse transcription was performed with the following program: 25° C. for 10 minutes, 37° C. for 120 minutes, and 85° C. for 5 minutes. The cDNA was subjected to quantitative real-time PCR (Q-PCR) or stored at −20° C.
(§5) Quantitative real-time PCR was performed on an Applied Biosystems 7900 HT Fast Real Time PCR System in 384-well format. Each cDNA sample was assayed in triplicate with both probe of interest and control probe. Master mixes for each probe were prepared corresponding to 10 μL of Applied Biosystems TaqMan Universal PCR Master Mix (ThermoFisher Scientific, Waltham, Mass., USA), 1 μL of primer, and nuclease-free water corresponding to a volume providing 20 μL reactions when loading an average of 50 ng of cDNA. Quantitative real-time PCR was run with the following thermal cycling protocol: 50° C. for 2 min., 95° C. for 10 min., and 40 cycles of 95° C. for 15 seconds, 60° C. for 1 min., then fluorescence reading. The following FAM probes were purchased from Life Technologies (Carlsbad, Calif., USA): mouse GAPDH, Mm99999915_g1; mouse Gli1, Mm00494646_g1; mouse Ptch1, Mm01306905_m1.
(§6) Quantitative real-time PCR data for Hh signaling inhibition was quantitated using the ΔΔCt method. Control probe values were subtracted from probe of interest values to arrive at the ΔCt value. The ΔCt value was transformed by 2-^ΔCt to arrive at the ΔΔCt value. All ΔΔCt values were divided by the average negative control ΔΔCt value to provide percent Hh signaling activity. Percent inhibition values were derived by calculating the inverse of percent activity. Data is reported as mean±standard error of the mean (SEM), representing at least two biological replicates, each quantitated in triplicate.

Ptch1 transcription = test: Sufu−/− mouse embryonic fibroblasts qRT-PCR; format: cell-based
Excerpt: as §1, §2, §3, §4, §5, §6

[2] = Lipophilic efficiency (LipE = pEC50 − cLogP) and cLogP
How it was run: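 pEC50 came from TM3-Gli-Luc Gli-responsive luciferase reporter cells stimulated with 20 nM SAG, with non-specific cytotoxicity monitored in parallel. LipE was calculated by subtracting cLogP from pEC50.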

[3] = test system: Hedgehog signaling (Gli-Luc reporter); settings: read-out: reported EC50 in the Shh-LIGHT2 reporter line; cited from earlier work
Hh signaling = Hh signaling inhibition (assay not named, data not shown); format: cell-based
[4] = test system: Hedgehog signaling (Gli-Luc reporter); test: Hh Gli-Luciferase reporter assay in Shh-Light2 cells; format: cell-based, mouse; settings: Shh-conditioned media
How it was run: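 Shh-Light2 cells with stable Gli-luciferase were stimulated by Shh-conditioned medium (or 3 μM purmorphamine or 20 nM SAG), or transfected with Gli-2, PDE4D3 or DN-PDE4D3. Overnight compound incubation preceded Steady-Glo read-out, normalized to CellTiter-Glo.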

[5] = test system: total cellular cAMP levels; test: cAMP assay (total cellular cAMP, EIA chemiluminescence); format: cell-based
Experimental: Shh-Light2 cells were seeded in a 96-well plate and incubated overnight. Varying concentrations of Rolipram or Eggmanone (0.013 uM-30 uM) or DMSO only were added to the cells in the absence of serum and incubated 30 minutes, at which time forskolin was added for a final concentration of 1 uM. After an additional 15 minutes, cells were washed with PBS and assayed for cAMP levels using EIA based chemiluminescence kit according to the manufacturer's protocol (Cell Signaling Technologies, Danvers, Mass.).

mouse aorta = test: Myography of cannulated mouse aorta
Excerpt: For myography, to test the vascular tone for presense of downstream or off target effects, mouse aorta was mounted and cannulated on a closed system. A physiological buffer (with respect to pH, CO2, and temperature) was circulated through the vessel.

PKA activation = test: Immunostaining of autophosphorylated PKA catalytic subunit in NIH3T3 cells; format: cell-based; settings: SAG-stimulated NIH3T3 cells, Egm 5 μM, Rolipram 10 μM
Experimental: NIH3T3 cells were plated on Poly-D-Lysine-coated glass coverslips and were cultured at 37° C., 5% CO2 in DMEM medium containing 10% fetal bovine serum until reaching 75% confluency. For one set of experiments, cells were then transfected with VSV-tagged PDE4D3 plasmid (gift from Miles Houslay, University of Glasgow, Scotland, UK) using Fugene6 transfection reagent (Roche, Indianapolis, Ind.) per manufacturer's protocol. Afterward, cell medium was replaced with DMEM/0.5% FBS containing either 5 μM eggmanone or DMSO and incubated overnight at 37° C., 5% CO2. Cells were fixed in 4% PFA at room temperature for 10 minutes prior to permeabilization, blocking, and staining with primary antibodies against Arl13b (gift of Tamary Caspary, Emory University, Atlanta, Ga.) and VSV (AbCam, Cambridge, Mass.). Fluorescent immunocytochemistry was performed using species-specific, secondary antibodies (Jackson Immunoresearch, West Grove, Pa.). For additional immunocytochemistry experiment, cells were treated with 20 nM SAG in the presence or absence of 5 uM Eggmanone. After overnight incubation, cells were washed with PBS, fixed for 10 minutes in 4% PFA, permeabilized 20 minutes at −20C with cold methanol, blocked with PBS/1% BSA, and incubated with primary antibodies to phospho-PKA catalytic domain Thr197 (Cell Signaling, Danvers, Mass.) and then to Arl13b. An additional overnight blocking step using unconjugated rabbit IgG was required between primary antibody incubations since both antibodies were produced in rabbit. Fluorescent conjugated secondary antibodies were used for visualization. Data analysis was performed in part through the use of the VUMC Cell Imaging Shared Resource.
Using ImageJ software (National Institutes of Health, developed by W. Rasband), a region of interest was created using the magic wand tool on Arl13b channel and transposed to the Gli2 channel, and integrated density was measured and reported as arbitrary units (a.u.). For phospho-PKA, using ImageJ, a line selection tool was used to select a line projected through the length of the primary cilia and an equal length beyond. The intensity values were potted and the cumulative florescence (area under the curve) was calculated for three cilia, blindly, for each treatment. These values for cilia and pericilia domain were analyzed by a two tailed students t-test. For correlation analysis, correlation coefficient for intensity of gamma-tubulin and phosphor-PKA were calculated and compared among treatments with students t-test.

cAMP = test: FRET-based cAMP sensors in NIH3T3 cells; format: cell-based; settings: 2 μM
Excerpt: To visualize changes in cAMP concentrations in individual cells and cellular regions, we utilized two distinct FRET (fluorescence resonance energy transfer)-based cAMP sensors: the Epac-FRET sensor (mTurquoiseΔ-Epac(CD, ΔDEP)-cp173 Venus-Venus)^35, which detects cytosolic cAMP concentration and the PKA-based cAMP sensor (PKAC-YFP and PKARII-CFP combination), which has been used to document changes in local cAMP levels in the centrosome and basal body.

[6] = Sufu−/− MEF, qRT-PCR, compounds tested at 10 μM, normalized to DMSO, mean ± SEM

CN(C)c1ccccc1CN1CCCN(Cc2ccccc2N(C)C)C1c1ccncc1 [GANT-61, reference compound]
Hh inhibitory activity / potency in words ([1]; 20 nM SAG): slightly higher than the reported | EC50 ([1]; 20 nM SAG, mean ± standard error of the mean): 9.27 ± 1.8 µM | EC50 ([1]; TM3-Gli-Luc reporter line stimulated with 20 nM SAG, mean ± SEM, Table 14): 9.27 ± 1.8 µM | TM3-Gli-Luc LD50 (TM3-Gli-Luc cells): >50 µM | inhibition of Gli1 transcription (Gli1 transcription; 10 μM): approximately 50% | Sufu−/− % Inh. Gil1 mRNA (Gli1 transcription; [6]): 43.8 ± 5.2% | inhibition of Ptch1 transcription (Ptch1 transcription; 10 μM): approximately 50% | Sufu−/− % Inh. Ptch1 mRNA (Ptch1 transcription; [6]): 52.8 ± 2.7% | LipE ([2]; Calculated as pEC50 - cLogP, Molinspiration Cheminformatics): 1.34 | LipE ([2]; pEC50 - cLogP, Table 14): 1.34 | EC50 [3]: ~5 µM

O=C(Nc1c(Cl)cncc1Cl)c1ccc(OC(F)F)c(OCC2CC2)c1 [Roflumilast]
Potency for Hh signaling inhibition (Hh signaling): micromolar potency

COc1ccc(C2CNC(=O)C2)cc1OC1CCCC1 (centres unmarked) [rolipram, reference compound]
Sonic hedgehog (SHH)-responsive Gli-luciferase reporter activity [4]: did not bring the reporter activity down to the baseline even at very high concentrations | Sonic hedgehog (SHH)-responsive Gli-luciferase reporter activity ([4]; listed as Rolipram): incomplete even at high concentrations | Total cellular cAMP levels [5]: substantially; also recorded: elicited robust cAMP accumulation | Total cellular cAMP levels ([5]; listed as Rolipram): increased total cellular cAMP levels | Vessel diameter after pre-constriction (mouse aorta): caused the vessel to dilate | PKA activation (phospho-PKA-C staining), spatial distribution (PKA activation): more diffuse increase in cytoplasmic phospho-PKA levels; also recorded: more diffuse increase in phospho-PKA staining | PKA activation (phospho-PKA-C staining), spatial distribution (PKA activation; listed as Rolipram): increases PKA activation more diffusely | Cytosolic FRET signal (Epac-FRET sensor) (cAMP): significantly increased the FRET signal throughout the cell

Reference: patent US10329304B2, “Compounds and methods for inhibition of hedgehog signaling and phosphodiesterase” (Vanderbilt University, priority 2014, dated 2019)
